Values joined by “and” are separate entries in the source; they are usually repeats but may differ in a detail not shown here. Equal values may be shown once. Read-outs that look alike come from different tables or passages of the source.
Columns and labels:
[1] = set-up: method as in PMID 21337354; conditions: rodents; cited from earlier work
C57Bl/6 mice = test: Mouse 24 h novel object recognition; type: in vivo
Experimental: The procedure followed a 3 day protocol. On day 1 (habituation) individual mice were habituated to the testing chamber (a white PVC box 48 cm long x 38 cm wide x 20 cm high with brown linoleum flooring) for 15 min then returned to their home cage. On day 2 (training) individual mice were returned to the testing chamber containing 2 identical objects and allowed to explore. The training session lasted for up to 15 min or until the mouse explored the objects for a total of 60 s. A maximal trial duration of 15 min was used to accommodate mice that are slower to initiate exploration. On day 3 (testing) individual mice were returned to the testing chamber 24 h later containing 1 familiar object encountered in the previous training session and one novel object. The testing session lasted up to 10 min or until the mouse explored the objects for a total of 60 s. The objects used for these studies were made of duplex legos approximately 3 inches high x 1 inch wide; one object was a multicolored rectangle and the second object was a solid color rectangle with a short arm attached. The location of the objects was counterbalanced between animals but was consistent within animals so that only the object itself was novel on the test session. The familiar object used during the test session was the same object used during training and all objects were thoroughly cleaned between sessions and between subjects. Animal behavior was video recorded during both training and testing and the amount of time spent exploring the objects determined using Cleversys software. Object exploration was only scored when the animal’s nose was within 1 cm of the object. […] The vehicle was chosen for sc dosing to ensure that BMS-933043 was dosed as a solution and not a suspension. […] For each subject the % discrimination index (DI) was calculated for both the training and test session as follows: %DI training = (time exploring object 1—time exploring object 2)/(total time exploring object 1 + object 2) X 100; %DI testing = (time exploring novel object—time exploring familiar object)/(total time exploring novel + familiar object) X 100.

[2] = Plasma and brain concentrations after dosing; type: in vivo, mouse; conditions: for Kp: mouse, brain/plasma
Experimental: Occupancy determinations were made either on completion of behavioral testing or in satellite groups of animals dosed in parallel with behavioral testing. At specified time points after dosing, the forebrain (for occupancy), the remaining hindbrain (for brain drug exposure) and plasma were collected, frozen in chilled isopentane and stored at -80°C until assayed. […] Homogenized tissue aliquots were frozen immediately and stored at -80°C. […] Non-specific binding was defined by adding 25 μM MLA to wells containing tissues from vehicle-treated animals. […] The filters were washed with ice-cold assay buffer, punched into a clear plate and 200 μl scintillation fluid added per well. Bound radioactivity was measured using a Wallac Microbeta liquid scintillation counter. Specific binding was calculated by subtracting the value of the non-specific binding from that of the total binding in each sample. The percent occupancy was calculated as [1 –(specific binding in drug treated mice/specific binding in vehicle treated mice)] x 100.
In brief, 50 μL of the plasma sample was extracted by protein precipitation with 150 μL acetonitrile containing an internal standard and 5 μL of supernatant injected into the LC-MS/MS system. Analytes were separated by reversed phase chromatography and detection of each analyte was achieved through selected reaction monitoring mode of mass spectrometry.

HEK293/Human 5-HT3A = biological target: T1, HEK293/Human 5-HT3A (Homo sapiens, UniProt P46098); test: Ca2+ flux (FLIPR) 5-HT3A antagonist assay; type: cell-based
T1 construct: expressed in transfected cells; host or cells: HEK293 (made by Bristol-Myers Squibb)
T1 sequence (P46098 24-478): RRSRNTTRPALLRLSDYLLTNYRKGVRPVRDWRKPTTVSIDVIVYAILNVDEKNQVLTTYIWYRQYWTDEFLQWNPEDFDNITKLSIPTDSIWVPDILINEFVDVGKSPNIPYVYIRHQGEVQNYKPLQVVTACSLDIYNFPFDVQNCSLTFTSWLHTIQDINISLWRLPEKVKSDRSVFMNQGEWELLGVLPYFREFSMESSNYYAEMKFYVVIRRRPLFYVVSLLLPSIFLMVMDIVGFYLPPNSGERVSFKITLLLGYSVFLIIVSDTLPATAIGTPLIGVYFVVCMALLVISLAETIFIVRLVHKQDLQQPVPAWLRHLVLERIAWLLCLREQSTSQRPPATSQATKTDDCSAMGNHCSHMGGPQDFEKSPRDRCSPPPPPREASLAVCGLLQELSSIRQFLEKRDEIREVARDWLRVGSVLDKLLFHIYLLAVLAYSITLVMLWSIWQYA
Experimental: Functional activity was examined using Ca^2+-sensitive, dye-based, microfluorometric assays read on the FLIPR Tetra plate reader platform (Molecular Devices, CA, USA). Cells were plated in 384-well black, clear-bottomed Greiner poly-D-lysine coated plates at a density of ~25 K cells/well and incubated at 29°C for 48 h. Prior to assay, media contents were removed and cells incubated in assay buffer containing 5μM final Fluo-4 dye for 90 min. For nAChR assays, the dye-loading buffer was HBSS (#14175 Life Technologies) supplemented with 20 mM HEPES, 0.5 mM CaCl2, 1 mM MgCl2 and 10 μM atropine (final concentration). Test compounds were solubilized in DMSO and serially diluted in NUNC 384-well plates prior to addition of assay buffer (5.3 mM KCl + 140 mM NaCl + 20 mM Hepes + 25 mM CaCl2 + 1 mM MgCl2 + 10 μM atropine final concentration). Compounds diluted in assay buffer were added to the assay plate by the FLIPR and read for approximately 2 min. […] For 5-HT3A antagonist studies, the dye loading and compound diluent buffer was HBSS (#14025 Life Technologies) supplemented with 20 mM HEPES (final concentration) and the concentration of 5-HT used in the assay was 2 μM. Offline transformation of concentration response data was done using a 4 parameter logistic fit using a Bristol-Myers Squibb proprietary informatics software suite.

[3] = biological target: T2, HEK293/rat α7 nAChR cells (Rattus norvegicus, UniProt Q05941); test: Whole cell voltage clamp electrophysiology; type: cell-based; conditions: n = 6
T2 construct: expressed in transfected cells
Experimental: Whole-cell voltage clamp studies were conducted on HEK293/rat α7 or HEK293/human α7 nAChR cells. […] Atropine (1 μM) was included in the bathing solution. […] Cells were voltage clamped at a holding potential of -90 mV. Using the Dynaflow microfluidic perfusion system (Cellectricon; flow 26 μl/min) responses to a 300 ms application of ACh or α7 nAChR agonists were measured. Currents were filtered at 2 kHz and sampled at 10 kHz using an EPC-9 amplifier and HEKA Pulse/Patchmaster software. […] The peak current amplitude and net charge crossing the membrane (i.e. the area under the current response curve) induced by agonist application were measured using Clampfit (pClamp Suite) and normalized to the maximal response induced by ACh (3 mM ACh for peak current amplitude and 300 μM ACh for net charge).

α7 nAChR = biological target: T3, α7 nAChR (Mus musculus, UniProt P49582); test: Ex vivo α7 nAChR occupancy ([3H]-A-585539); type: in vivo; conditions: mouse, sc, mice
T3 construct: One forebrain hemisphere from each animal was thawed and homogenized in assay buffer; from tissue; host or cells: forebrain homogenate of dosed male C57Bl/6 mice
Experimental: Occupancy determinations were made either on completion of behavioral testing or in satellite groups of animals dosed in parallel with behavioral testing. At specified time points after dosing, the forebrain (for occupancy), the remaining hindbrain (for brain drug exposure) and plasma were collected, frozen in chilled isopentane and stored at -80°C until assayed. […] Homogenized tissue aliquots were frozen immediately and stored at -80°C. […] The filters were washed with ice-cold assay buffer, punched into a clear plate and 200 μl scintillation fluid added per well. Bound radioactivity was measured using a Wallac Microbeta liquid scintillation counter. Specific binding was calculated by subtracting the value of the non-specific binding from that of the total binding in each sample. The percent occupancy was calculated as [1 –(specific binding in drug treated mice/specific binding in vehicle treated mice)] x 100.

HEK293/Human α7 nAChR = HEK293/Human α7 nAChR (Homo sapiens, UniProt P36544); test: Ca2+ flux (FLIPR) agonist assay; type: cell-based
Experimental: Functional activity was examined using Ca^2+-sensitive, dye-based, microfluorometric assays read on the FLIPR Tetra plate reader platform (Molecular Devices, CA, USA). Cells were plated in 384-well black, clear-bottomed Greiner poly-D-lysine coated plates at a density of ~25 K cells/well and incubated at 29°C for 48 h. Prior to assay, media contents were removed and cells incubated in assay buffer containing 5μM final Fluo-4 dye for 90 min. […] Test compounds were solubilized in DMSO and serially diluted in NUNC 384-well plates prior to addition of assay buffer (5.3 mM KCl + 140 mM NaCl + 20 mM Hepes + 25 mM CaCl2 + 1 mM MgCl2 + 10 μM atropine final concentration). Compounds diluted in assay buffer were added to the assay plate by the FLIPR and read for approximately 2 min. […] Offline transformation of concentration response data was done using a 4 parameter logistic fit using a Bristol-Myers Squibb proprietary informatics software suite.

Rat Brain α7 nAChR = Rat Brain α7 nAChR (Rattus norvegicus, UniProt Q05941); test: [3H]-A-585539 filtration binding
[4] = NS-6740 (10 mg/kg sc) 10 min prior to BMS-933043 (0.3 mg/kg sc)

Sequence of Rat Brain α7 nAChR (Q05941 23-502): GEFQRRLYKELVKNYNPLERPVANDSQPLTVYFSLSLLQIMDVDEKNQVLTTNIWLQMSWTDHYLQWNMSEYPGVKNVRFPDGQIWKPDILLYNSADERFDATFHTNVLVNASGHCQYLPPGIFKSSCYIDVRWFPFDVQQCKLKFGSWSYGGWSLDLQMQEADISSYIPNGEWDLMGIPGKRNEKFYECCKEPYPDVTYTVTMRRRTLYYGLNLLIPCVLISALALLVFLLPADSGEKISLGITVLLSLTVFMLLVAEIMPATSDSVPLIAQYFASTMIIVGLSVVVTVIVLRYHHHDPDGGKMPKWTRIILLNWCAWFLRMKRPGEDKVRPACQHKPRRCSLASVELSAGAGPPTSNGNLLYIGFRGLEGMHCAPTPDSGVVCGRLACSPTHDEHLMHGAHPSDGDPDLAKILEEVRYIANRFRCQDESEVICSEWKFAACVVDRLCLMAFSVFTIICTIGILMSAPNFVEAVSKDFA
T3 sequence (P49582 23-502): as the sequence (Q05941 23-502) above, with A402T counted along it
T2 sequence (Q05941 23-502): as the sequence (Q05941 23-502) above
Sequence of HEK293/Human α7 nAChR (P36544 23-502): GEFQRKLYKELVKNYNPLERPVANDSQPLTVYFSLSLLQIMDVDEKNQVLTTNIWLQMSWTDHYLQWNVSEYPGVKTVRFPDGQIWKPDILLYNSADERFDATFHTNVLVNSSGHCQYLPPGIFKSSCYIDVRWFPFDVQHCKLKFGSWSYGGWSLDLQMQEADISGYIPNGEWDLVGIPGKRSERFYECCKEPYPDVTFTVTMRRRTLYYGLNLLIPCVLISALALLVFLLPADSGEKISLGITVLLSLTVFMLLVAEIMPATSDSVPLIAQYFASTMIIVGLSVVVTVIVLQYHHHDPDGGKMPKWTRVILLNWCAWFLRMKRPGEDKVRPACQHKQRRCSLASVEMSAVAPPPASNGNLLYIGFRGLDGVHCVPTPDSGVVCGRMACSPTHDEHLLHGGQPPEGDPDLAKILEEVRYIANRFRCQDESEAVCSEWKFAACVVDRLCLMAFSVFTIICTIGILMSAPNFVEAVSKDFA
Sequence of HEK293/Human α7 nAChR (Q7Z5B4 29-369 partner): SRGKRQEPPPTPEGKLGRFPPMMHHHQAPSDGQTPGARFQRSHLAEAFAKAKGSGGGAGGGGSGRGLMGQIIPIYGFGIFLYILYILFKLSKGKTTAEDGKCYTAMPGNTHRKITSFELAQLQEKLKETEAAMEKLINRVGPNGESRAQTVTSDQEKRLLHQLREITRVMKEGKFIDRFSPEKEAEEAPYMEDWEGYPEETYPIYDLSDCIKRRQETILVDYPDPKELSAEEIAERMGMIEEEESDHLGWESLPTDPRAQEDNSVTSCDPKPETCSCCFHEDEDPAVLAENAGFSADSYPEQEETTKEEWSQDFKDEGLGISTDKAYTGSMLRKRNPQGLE

## CCN1C[C@]2(COC(=O)c3ccccc3N3C(=O)C[C@H](C)C3=O)CC[C@H](OC)[C@@]34[C@@H]5C[C@H]6[C@H](OC)[C@@H]5[C@](O)(C[C@@H]6OC)[C@@](O)([C@@H](OC)[C@H]23)[C@@H]14 [MLA, methyllycaconitine]
[1]
  brain/plasma: 0.06–0.09

## O=C(c1ccc(-c2cccc(C(F)(F)F)c2)o1)N1CCN2CCC1CC2 [NS-6740, 4-[[5-[3-(trifluoromethyl)phenyl]-2-furanyl]carbonyl]-1,4-diazabicyclo[3.2.2]nonane]
C57Bl/6 mice; 3 or 10 mg/kg sc
  24 h recognition memory after NS-6740 alone: did not show improved 24 h recognition memory
C57Bl/6 mice; NS-6740 10 mg/kg sc
  effect of pretreatment on BMS-933043 (0.3 mg/kg, sc) improved discrimination index: abolished the improved discrimination index
C57Bl/6 mice; [4]
  % Discrimination Index (DI) Testing (day 3) Mean ± SEM: 3.83 ± 4.25%
  % Discrimination Index (DI) Training (day 2) Mean ± SEM: -4.82 ± 7.09%
C57Bl/6 mice; NS-6740 (10 mg/kg sc)/Vehicle
  % Discrimination Index (DI) Testing (day 3) Mean ± SEM: -1.02 ± 4.40%
  % Discrimination Index (DI) Training (day 2) Mean ± SEM: 6.43 ± 5.54%
[2]; NS-6740 0.3 mg/kg sc, mice
  Brain Mean ± SD: 316 ± 43 nM
  Plasma Mean ± SD: 37 ± 2 nM
[2]; NS-6740 1 mg/kg sc, mice
  Brain Mean ± SD: 1,125 ± 66 nM
  Plasma Mean ± SD: 130 ± 7 nM
[2]; NS-6740 3 mg/kg sc, mice
  Brain Mean ± SD: 3,998 ± 273 nM
  Plasma Mean ± SD: 544 ± 214 nM
[2]; NS-6740 10 mg/kg sc, mice
  Brain Mean ± SD: 17,725 ± 1,928 nM
  Plasma Mean ± SD: 2,083 ± 426 nM
[2]; NS-6740 0.3 mg/kg sc, mice, read-out: Brain/Plasma Ratio
  Kp: 8.54
[2]; NS-6740 1 mg/kg sc, mice, read-out: Brain/Plasma Ratio
  Kp: 8.65
[2]; NS-6740 3 mg/kg sc, mice, read-out: Brain/Plasma Ratio
  Kp: 7.35
[2]; NS-6740 10 mg/kg sc, mice, read-out: Brain/Plasma Ratio
  Kp: 8.51
[2]; NS-6740, mice sc, read-out: average brain/plasma ratio
  Kp: > 8
HEK293/Human 5-HT3A; FLIPR, individual determinations, read-out: Human 5-HT3A IC50 values (individual)
  IC50: 6.21 µM and 5.69 µM and 5.32 µM and 5.91 µM and 2.39 µM and 3.11 µM and 4.7 µM and 5.68 µM and 4.43 µM
HEK293/Human 5-HT3A; HEK293/Human 5-HT3A Mean ± SD IC50, Ca2+ flux (FLIPR), antagonism of 2 μM 5-HT
  IC50: 4.83 µM
[3]; IC50 for inhibition of BMS-933043 (10 μM) net charge crossing the membrane
  IC50: 0.255 µM
[3]; IC50 for inhibition of BMS-933043 (10 μM) peak current response
  IC50: 0.283 ± 0.033 µM
α7 nAChR; read-out: ex vivo α7 nAChR occupancy, NS-6740 3 mg/kg sc
  receptor occupancy at 3 mg/kg: 89%
α7 nAChR; read-out: ex vivo α7 nAChR occupancy, NS-6740 10 mg/kg sc
  receptor occupancy at 10 mg/kg: 98%
HEK293/Human α7 nAChR
  α7 nAChR agonist activity: no α7 nAChR agonist activity
Rat Brain α7 nAChR; displacement of [3H]-A-585539, read-out: Rat Brain α7 nAChR Mean ± SD Ki
  Ki: 0.00285 ± 0.00044 µM
Rat Brain α7 nAChR; individual determinations, read-out: Rat Brain α7 nAChR Ki (individual)
  Ki: 0.00245 µM and 0.00278 µM and 0.00333 µM
